The source of these data is PMC8286840, “Identifying SARS-CoV-2 antiviral compounds by screening for small molecule inhibitors of Nsp3 papain-like protease” (Biochemical Journal, 2021).

Assay [1] deals with T1, SARS-CoV-2 PLpro (nsp3 1564–1878) (Severe acute respiratory syndrome coronavirus 2, UniProt P0DTD1). The assay can be described thus: biochemical. Particulars: low concentration screen, read-out: % of control remaining. The arrangement: FRET-quenched peptide (Pro3) cleavage by PLpro, 10 min pre-incubation, slope over 20 min, normalised to no-compound control.
Assay [2] deals with T1, SARS-CoV-2 PLpro (nsp3 1564–1878). Put plainly: biochemical. Also noted: FRET-quenched peptide (Pro3) cleavage by PLpro, 10 min pre-incubation, slope over 20 min, normalised to no-compound control. To be noted: high concentration screen, read-out: % of control remaining.

Where a name gives a salt, the structure may show the parent alone. Read-outs that look alike come from different tables or passages of the source.

`N#CC[C@H](C1CCCC1)n1cc(-c2ncnc3[nH]ccc23)cn1` [Ruxolitinib (INCB018424)]: the remaining activity at 1.25 µM in assay [1] (Well no.=4805) was determined as 103%. In assay [2] (Well no.=4805), the remaining activity at 3.75 µM was 104%.

With `CC(C)[C@@]1(O)[C@@H](OC(=O)c2ccc[nH]2)[C@@]2(O)[C@@]3(C)C[C@]4(O)O[C@@]5([C@H](O)[C@@H](C)CC[C@]35O)[C@@]2(O)[C@@]14C` [Ryanodine], the remaining activity at 1.25 µM in assay [1] (Well no.=3583) is 104%. In addition, the remaining activity at 3.75 µM in assay [2] (Well no.=3583) was found to be 105%.

For the molecule `Cc1ccc(NC2=CC(=O)c3sc(C)nc3C2=O)cc1` [Ryuvidine - 2-Methyl-5-[(4-methylphenyl)amino]-4,7-benzothiazoledione], the remaining activity at 1.25 µM in assay [1] (Well no.=2584) turned out to be 86.3%. The remaining activity at 3.75 µM in assay [2] (Well no.=2584) was 85%.

Take `Cc1c(-c2c(-c3ccc(F)o3)sc3ncnc(O[C@H](Cc4ccccc4OCc4ccnn4CC(F)(F)F)C(=O)O)c23)ccc(OCCN2CCN(C)CC2)c1Cl` [S63845]: the remaining activity at 1.25 µM in assay [1] (Well no.=7208) was found to be 92.6%. In addition, the remaining activity at 3.75 µM in assay [2] (Well no.=7208) is 88.1%.

`CC(C)Cc1ccc([C@H](C)C(=O)O)cc1` [S(+)-Ibuprofen]: in assay [1] (Well no.=825), the remaining activity at 1.25 µM is 103%. Besides, the remaining activity at 3.75 µM in assay [2] (Well no.=825) was 105%.

For `CC(C)NCC(O)c1ccc(O)c(O)c1` (stereo not drawn) [S(+)-Isoproterenol (+)-bitartrate], in assay [1] (Well no.=823), the remaining activity at 1.25 µM was 102%. Further, the remaining activity at 3.75 µM in assay [2] (Well no.=823) is 105%.

In the case of `CCCN1CCO[C@@H]2c3cc(O)ccc3OC[C@H]21` [S(+)-PD 128,907 hydrochloride], the remaining activity at 1.25 µM in assay [1] (Well no.=1265) came out at 102%. In addition, the remaining activity at 3.75 µM in assay [2] (Well no.=1265) is 104%.

Consider `CCN1CCC[C@H]1CNC(=O)c1c(O)c(Cl)cc(Cl)c1OC` [S(+)-Raclopride L-tartrate], for which the remaining activity at 1.25 µM in assay [1] (Well no.=1354) is 104%. Moreover, in assay [2] (Well no.=1354), the remaining activity at 3.75 µM stood at 103%.

For the molecule `CCCN1CCC[C@@H](c2cccc(C#N)c2)C1` [S(-)-DS 121 hydrochloride], the remaining activity at 1.25 µM in assay [1] (Well no.=596) is 100%. The remaining activity at 3.75 µM in assay [2] (Well no.=596) stood at 101%.

With `CCN1CCC[C@H]1CNC(=O)c1c(OC)ccc(I)c1O` [S(-)-IBZM], in assay [1] (Well no.=875), the remaining activity at 1.25 µM was found to be 98.1%. Also, in assay [2] (Well no.=875), the remaining activity at 3.75 µM amounted to 99.1%.

In the case of `CC(C)(C)NCC(O)COc1nsnc1N1CCOCC1` (stereo not drawn) [S(-)-Timolol maleate], the remaining activity at 1.25 µM in assay [1] (Well no.=1483) came to 97.1%. Also, the remaining activity at 3.75 µM in assay [2] (Well no.=1483) stood at 96%.

As for `CCCN(CCC)[C@H]1CCc2c(F)ccc(O)c2C1` [S(-)-UH-301 hydrochloride], in assay [1] (Well no.=1334), the remaining activity at 1.25 µM worked out at 97.2%. In assay [2] (Well no.=1334), the remaining activity at 3.75 µM turned out to be 95.3%.

In the case of `N[C@@H](Cn1ccc(=O)[nH]c1=O)C(=O)O` [S(-)-Willardiine], in assay [1] (Well no.=1244), the remaining activity at 1.25 µM amounted to 100%. In addition, the remaining activity at 3.75 µM in assay [2] (Well no.=1244) came out at 99.9%.

For `Brc1ccc([C@H]2CN3CCSC3=N2)cc1` [S(-)-p-Bromotetramisole oxalate], the remaining activity at 1.25 µM in assay [1] (Well no.=99) came to 104%. In addition, the remaining activity at 3.75 µM in assay [2] (Well no.=99) was 102%.

On to `N[C@@H](Cn1cc(I)c(=O)[nH]c1=O)C(=O)O` [S-5-Iodowillardiine], for which the remaining activity at 1.25 µM in assay [1] (Well no.=1340) came to 102%. Also, the remaining activity at 3.75 µM in assay [2] (Well no.=1340) came out at 99.5%.

With `Nc1nc(SCc2ccc([N+](=O)[O-])cc2)c2ncn([C@@H]3O[C@H](CO)[C@@H](O)[C@H]3O)c2n1` [S-(4-Nitrobenzyl)-6-thioguanosine], the remaining activity at 1.25 µM in assay [1] (Well no.=53) was 101%. For the same molecule, the remaining activity at 3.75 µM in assay [2] (Well no.=53) worked out at 102%.

Consider `O=[N+]([O-])c1ccc(CSc2ncnc3c2ncn3[C@@H]2O[C@H](CO)[C@@H](O)[C@H]2O)cc1` [S-(4-Nitrobenzyl)-6-thioinosine], for which the remaining activity at 1.25 µM in assay [1] (Well no.=949) was 105%. The remaining activity at 3.75 µM in assay [2] (Well no.=949) was found to be 101%.

In the case of `C[C@@](Cc1ccc(O)c(O)c1)(NN)C(=O)O` [S-(-)-Carbidopa], the remaining activity at 1.25 µM in assay [1] (Well no.=677) worked out at 99.2%. Further, the remaining activity at 3.75 µM in assay [2] (Well no.=677) came to 97.9%.

As for `CCc1cc(Cl)c(OC)c(C(=O)NC[C@@H]2CCN(CC)C2)c1O` [S-(-)-Eticlopride hydrochloride], in assay [1] (Well no.=417), the remaining activity at 1.25 µM came out at 102%. Moreover, in assay [2] (Well no.=417), the remaining activity at 3.75 µM amounted to 101%.

Regarding `[N-]=[N+]=Nc1ccc(C(=O)CSC[C@H](NC(=O)CC[C@H](N)C(=O)O)C(=O)NCC(=O)O)cc1` [S-(p-Azidophenacyl)glutathione], the remaining activity at 1.25 µM in assay [1] (Well no.=105) was determined as 107%. The remaining activity at 3.75 µM in assay [2] (Well no.=105) is 110%.

For the molecule `C=CCSC[C@H](N)C(=O)O` [S-Allyl-L-cysteine], in assay [1] (Well no.=5435), the remaining activity at 1.25 µM was determined as 99.1%. In addition, in assay [2] (Well no.=5435), the remaining activity at 3.75 µM came to 97%.

In the case of `CCSC(=N)N` [S-Ethylisothiourea hydrobromide], the remaining activity at 1.25 µM in assay [1] (Well no.=459) came to 102%. Also, in assay [2] (Well no.=459), the remaining activity at 3.75 µM was 101%.

`COC(=O)[C@@H](N)CSC/C=C(\C)CC/C=C(\C)CCC=C(C)C` [S-Farnesyl-L-cysteine methylester]: the remaining activity at 1.25 µM in assay [1] (Well no.=4566) worked out at 98.6%. Moreover, the remaining activity at 3.75 µM in assay [2] (Well no.=4566) turned out to be 99.1%.

Regarding `CSC(=N)NCCC[C@H](N)C(=O)O` [S-Methyl-L-thiocitrulline acetate], the remaining activity at 1.25 µM in assay [1] (Well no.=1024) amounted to 101%. Also, the remaining activity at 3.75 µM in assay [2] (Well no.=1024) was determined as 101%.

On to `CSC(=N)N` [S-Methylisothiourea hemisulfate], for which the remaining activity at 1.25 µM in assay [1] (Well no.=924) stood at 108%. In addition, the remaining activity at 3.75 µM in assay [2] (Well no.=924) is 103%.

On to `CC(=O)N[C@@H](C(=O)O)C(C)(C)SN=O` [S-Nitroso-N-acetylpenicillamine], for which the remaining activity at 1.25 µM in assay [1] (Well no.=1045) worked out at 99.8%. Besides, in assay [2] (Well no.=1045), the remaining activity at 3.75 µM was 98.3%.

Turning to `N[C@@H](CCC(=O)N[C@@H](CSN=O)C(=O)NCC(=O)O)C(=O)O` [S-Nitrosoglutathione], in assay [1] (Well no.=855), the remaining activity at 1.25 µM worked out at 103%. Besides, the remaining activity at 3.75 µM in assay [2] (Well no.=855) worked out at 104%.

As to `N#CC[C@H](C1CCCC1)n1cc(-c2ncnc3[nH]ccc23)cn1` [S-Ruxolitinib], the remaining activity at 1.25 µM in assay [1] (Well no.=4841) is 96.7%. In addition, the remaining activity at 3.75 µM in assay [2] (Well no.=4841) was 97.5%.

Take `COc1ccc(CCN2CCN(CCCc3ccccc3)CC2)cc1OC` [SA4503 (dihydrochloride)]: the remaining activity at 1.25 µM in assay [1] (Well no.=6991) was determined as 101%. Moreover, the remaining activity at 3.75 µM in assay [2] (Well no.=6991) stood at 102%.

For `COc1ccc(CC[C@@H](OC(=O)[C@@H]2CCCCN2C(=O)[C@H](c2cc(OC)c(OC)c(OC)c2)C2CCCCC2)c2cccc(OCCN3CCOCC3)c2)cc1OC` [SAFit2], the remaining activity at 1.25 µM in assay [1] (Well no.=7064) is 96.3%. Further, the remaining activity at 3.75 µM in assay [2] (Well no.=7064) amounted to 92.2%.

Consider `CC(C)(C)C[C@@H]1N[C@@H](C(=O)N[C@H]2CC[C@H](O)CC2)[C@H](c2cccc(Cl)c2F)[C@]12C(=O)Nc1cc(Cl)ccc12` [SAR405838], for which the remaining activity at 1.25 µM in assay [1] (Well no.=6550) was 109%. The remaining activity at 3.75 µM in assay [2] (Well no.=6550) amounted to 110%.

On to `Nc1nccc(-c2c(-c3ccc(F)cc3)ncn2C2CCNCC2)n1` [SB220025], for which the remaining activity at 1.25 µM in assay [1] (Well no.=2604) is 99.6%. Also, in assay [2] (Well no.=2604), the remaining activity at 3.75 µM is 99.7%.
